# Key:
# [1] = Radiation-induced mucositis in mice (inferior lip mucosa model, Parkins score); type: in vivo, C57BL/6 mice; conditions: C57BL/6, mouse, in vivo; IP, given before each fraction of radiation, mice; read-out: maximum tolerated dose
# Description: (§1) The experimental murine model was developed by Parkins et al., Radiother. […] C57BL/6 mice 8-10 weeks old were used and fed with semi-liquid food. Unanesthetized mice were maintained in supine position and irradiated exclusively on the tip of the mouth. […] J. Radiat. Oncol. Biol. Phys., 8, 145-148 (1982). The irradiation was performed with an RT 250 Phillips apparatus, delivering 1.98 Gy/min (200 kV, 20 mA, filter of 0.2 mm Cu). During irradiation, a constant normobaric air renewal was maintained.
# (§2) For the systemic applications, amifostine was dissolved in a […] solution 5 minutes before systemic IP injection of 200 to 400 mg/kg, which was administered 30 minutes before irradiation. A placebo solution of […] was used for a control group. For the topical applications, 50 mg of amifostine was dissolved in 1 mL of a solution containing 1% stearate, 5% H2O, and ammonia to adjust the pH of the solution to 8.8. The topical application was administered to the lip mucosa of the mice for a period of 30 minutes before each radiation session, and was maintained throughout the duration of irradiation. A single dose of 16.5 Gy, and a fractionated schedule delivering 24 Gy in 4 fractions over 2 days (with 8 hour intervals between fractions) were administered.
# (§3) Four groups of eight mice were scored and weighed each day. Any mice having lost 30% or more of the initial weight was sacrificed. The effect of mucositis and weight loss were compared at the maximum of the acute reactions (day 11) among the different groups receiving or not receiving amifostine treatments, using the Mann and Whitney test.
# [2] = system: inferior lip mucosa of the mice; assay: as above; type: in vivo, C57BL/6 mice; conditions: for maximum grade of mucosal reactions: Parkins score
# Description: as §1, §2, §3
# Aspergillus niger [3] = assay: Microbial growth inhibition, refrigerated storage (2°-8° C.); type: cell-based; conditions: A. niger, refrigerated 2°-8° C.; for % Change: vs theoretical 0 hr count
# Description: (§4) Amifostine was studied for its ability to inhibit microbial growth. Clear 10 cc vials, stoppers and seals were sterilized for use in the study. Two separate procedures were performed: a refrigerated storage study (2° to 8° C.) and a room temperature storage study (20° to 25° C.). For each test portion, positive controls were prepared for each organism by placing 9.5 mL sterile 0.9% sodium chloride into separate sterile vials and inoculating each with 10^3 to 10^4 of one of the test organisms. In addition, amifostine test specimens were prepared for each test portion by reconstituting six Ethyol® vials with 0.9% sodium chloride, the contents of each of these vials were then transferred to clear sterile vials to allow for easier visual examination. One vial was designated as a negative control, and each of the remaining five vials was inoculated with 10^3 to 10^4 of one of the test organisms. All vials were protected from light throughout the test to simulate the amber Ethyol® vial.
# (§5) Positive controls, product test specimens, and a negative control were prepared. At this time, population counts were performed on each positive control. Population counts were also performed on positive controls and product test specimens at 24, 48 and 72 hours. These samples were diluted with sterile water and plated in duplicate with a target of 30 to 300 colonies per plate. Candida albicans, Escherichia coli, Pseudomonas aeruginosa, and Staphylococcus aureus were overpoured with TSA agar and incubated at 30-35° C. for 48 hours. Aspergillus niger was overpoured with Sabouraud agar and incubated at 20-25° C. for 48 hours.
# Aspergillus niger [4] = assay: Microbial growth inhibition, room temperature storage (20°-25° C.); type: cell-based; conditions: A. niger, room temperature 20°-25° C.; for % Change: vs theoretical 0 hr count
# Description: as §4
# as §5, with “24 and” for “24,”, “48” for “48 and 72”
# Candida albicans = assay: as above; type: cell-based; conditions: room temperature 20°-25° C.; for % Change: vs theoretical 0 hr count
# Description: as §4
# as §5, with “24 and” for “24,”, “48” for “48 and 72”
# Escherichia coli = assay: as above; type: cell-based; conditions: E. coli, room temperature 20°-25° C.; for % Change: vs theoretical 0 hr count
# Description: as §4
# as §5, with “24 and” for “24,”, “48” for “48 and 72”
# Pseudomonas aeruginosa = assay: as above; type: cell-based; conditions: P. aeruginosa, room temperature 20°-25° C.; for % Change: vs theoretical 0 hr count
# Description: as §4
# as §5, with “24 and” for “24,”, “48” for “48 and 72”
# Staphylococcus aureus = assay: as above; type: cell-based; conditions: S. aureus, room temperature 20°-25° C.; for % Change: vs theoretical 0 hr count
# Description: as §4
# as §5, with “24 and” for “24,”, “48” for “48 and 72”
# oral mucosa of mice = conditions: topical in carbowax to oral mucosa; cited from earlier work
# mouse skin = conditions: cited from earlier work
# murine skin = conditions: gauze with 10% solution in saline on murine skin 15 to 60 minutes, then 137Cs irradiation; cited from earlier work
# rectal wall of rats = conditions: intrarectal injection of 2% amifostine gel; cited from earlier work
# [5] = system: intestinal mucosa in patients; conditions: enema in Proctofoam, 100 to 450 mg, 45 minutes prior to pelvic radiation; cited from earlier work
# small intestine of rats = conditions: 150 mg/mL in pH 9 Tris buffer, intralumenal; cited from earlier work
structure (smiles),measurement,setting,value
"NCCCNCCSP(=O)(O)O [amifostine, S-2-(3-aminopropylamino)ethyl dihydrogen phosphorothioate]",MTD at 2 days,[1],400 mg/kg
same,maximum grade of mucosal reactions,"[2]; 200 mg/kg IP 30 min before irradiation, 24 Gy in 4 fractions over 2 days, day 11, ± standard error",3.5±0.2
same,maximum grade of mucosal reactions,"[2]; 400 mg/kg IP 30 min before irradiation, 24 Gy in 4 fractions over 2 days, day 11, ± standard error",2.5±0.4
same,grades of mucosal reactions compared to the control group,"[2]; single dose of 16.5 Gy, IP and topical amifostine groups",significantly lower
same,maximum grade of mucositis,"[2]; topical 50 mg/mL solution pH 8.8 on lip mucosa 30 min before and during irradiation, 24 Gy in 4 fractions over 2 days, day 11, ± standard error",3.9±0.2
same,CFU/mL in Amifostine,Aspergillus niger [3]; 24 hr,1.78 × 10^5 CFU/mL
same,% Change,Aspergillus niger [3]; 24 hr,−40.7%
same,CFU/mL in Amifostine,Aspergillus niger [3]; 48 hr,1.67 × 10^5 CFU/mL
same,% Change,Aspergillus niger [3]; 48 hr,−44.3%
same,CFU/mL in Amifostine,Aspergillus niger [3]; 72 hr,1.67 × 10^5 CFU/mL
same,% Change,Aspergillus niger [3]; 72 hr,−44.3%
same,CFU/mL in Amifostine,Aspergillus niger [4]; 24 hr,1.56 × 10^7 CFU/mL
same,% Change,Aspergillus niger [4]; 24 hr,+58.3%
same,CFU/mL in Amifostine,Aspergillus niger [4]; 48 hr,3.52 × 10^6 CFU/mL
same,% Change,Aspergillus niger [4]; 48 hr,−61.3%
same,CFU/mL in Amifostine,Candida albicans; 24 hr,1.43 × 10^4 CFU/mL
same,% Change,Candida albicans; 24 hr,−13.8%
same,CFU/mL in Amifostine,Candida albicans; 48 hr,1.00 × 10^4 CFU/mL
same,% Change,Candida albicans; 48 hr,−39.8%
same,CFU/mL in Amifostine,Escherichia coli; 24 hr,2.28 × 10^3 CFU/mL
same,% Change,Escherichia coli; 24 hr,−91.8%
same,CFU/mL in Amifostine,Escherichia coli; 48 hr,8.55 × 10^2 CFU/mL
same,% Change,Escherichia coli; 48 hr,−96.9%
same,CFU/mL in Amifostine,Pseudomonas aeruginosa; 24 hr,5.22 × 10^2 CFU/mL
same,% Change,Pseudomonas aeruginosa; 24 hr,−80.0%
same,CFU/mL in Amifostine,Pseudomonas aeruginosa; 48 hr,0 CFU/mL
same,% Change,Pseudomonas aeruginosa; 48 hr,−100%
same,CFU/mL in Amifostine,Staphylococcus aureus; 24 hr,9.60 × 10^4 CFU/mL
same,% Change,Staphylococcus aureus; 24 hr,−4.0%
same,CFU/mL in Amifostine,Staphylococcus aureus; 48 hr,3.32 × 10^2 CFU/mL
same,% Change,Staphylococcus aureus; 48 hr,−99.7%
same,toxicity at the dosages tested,oral mucosa of mice,no toxicity observed
same,"radioprotective effect, topically applied","mouse skin; paste (aqueous sodium bicarbonate pH 7 and Unibase) on mouse skin, any dose studied",no radioprotective effect
same,"radioprotective effect, systemically administered","mouse skin; systemic administration, mice",effective in reducing the severity of radiation damage
same,"radioprotective effect, topically applied",murine skin,no significant radioprotective effects
same,tissue level of metabolite WR-1065 after topical application,rectal wall of rats,accumulation of the amifostine metabolite WR-1065 in the rectal wall
same,"rectal mucosal damage, test group vs control group",[5],no significant differences
same,radioprotection against intestinal mucositis,small intestine of rats,effective radioprotector

# Reference: patent US6753323B2, “Topical administration of amifostine and related compounds” (MedImmune Oncology, Inc., priority 1998, dated 2004)
